Measurements: US20060270640A1, “Method of preventing, medicating, and/or treating hypocalcemia of domestic mammal” (Mercian Corporation, priority 2004, published 2006)
“And” between values parts separate entries of the source, which are not always exact repeats. Equal entries are not always repeated. Where two headings read alike, the source gives them in different places.

Experiments:
[1] = Dose-response test of 1,25-(OH)2D3, intravaginal vs intravenous: 1,25-(OH)2D3 in plasma and bioavailability (Example 3); assay type: in vivo, cow; details: for concentration at 0 h: read-out: 1,25-(OH)2D3 level in plasma
Description: (§1) Hereinafter, the present invention will further be described with reference to Examples and Comparative Example. However, the present invention is not intended to be limited to them by any means. In the examples described below, a 1,25-(OH)2D3 concentration in plasma was determined using a radioimmunoassay kit (1,25-(OH)2D RIA kit, Immunodiagnostic Systems Limited, UK). The Ca concentrations, inorganic phosphorus (iP) concentrations, and magnesium (Mg) concentrations in plasma and urine were determined by orthocresolphthalein complexone (O-CPC), molybdenum (Mo), and xylidyl blue methods, respectively. A creatinine concentration in urine was determined by a Jaffe method. Calcium (Ca), inorganic phosphorus (iP), and magnesium (Mg) concentrations in urine were indicated in the ratios relative to creatinine (Cre) (Ca/Cre, iP/Cre, and Mg/Cre, respectively).
(§2) The dose-response test of 1,25-(OH)2D3 by an intravaginal administration route was performed with five 3 to 9-year-old ovariectomized Holstein cows having body weights of 616 to 804 kg as test animals.
(§3) The cows were hitched to a partition after and provided with 5.3 kg of timothy hay, 0.18 kg of alfalfa hay, 0.71 kg of beet pulp pellet, and 1.7 kg of commercially-available grain mix on a daily basis. The cows were measured on a DM basis and freely provided with water. A daily mineral intake was set to 48.4 g for calcium, 20.2 g of inorganic phosphorus, and 12.7 g for magnesium, which sufficiently exceeded the NRC recommendation.
(§4) To the five cows, 1,25-(OH)2D3 was respectively administered at 0.125, 0.25, 0.5, and 1.0 μg/kg (by body weight) as an intravaginal dose level and 1.0 μg/kg (by body weight) as an intravenous injection dose level at an interval of 2 weeks or more according to a 5×5 Latin square design.
(§5) The 1,25-(OH)2D3 (manufactured by Mercian Corporation) used was in the form of crystalline powder, which was dissolved in 99% ethanol at 200 μg/mL and cryopreserved at −20° C. until use.
(§6) A drug composed of 5 mL of 20% ethanol solution containing 1,25-(OH)2D3 at 0.125, 0.25, 0.5, or 1.0 μg/kg (by body weight) was administered to a vaginal lumen using a Split Universal Sheath (IMV Int. CO., France) by a rectovaginal cavity method. The vulva was then bonded with an adhesive in order to prevent the 1,25-(OH)2D3 solution from being unintentionally excreted from the vaginal lumen. Intravenous administration was performed using a cannula (14-ga cannula for animals, manufactured by Nipro Medical Industries Ltd.) mounted in advance for the collection of a blood sample.
(§7) A heparinized blood sample was collected through the cannula immediately before the administration of 1,25-(OH)2D3 (0 hour) and at 2, 4, 6, 12, 24, 48, 72, 96, and 120 hours after administration.
(§8) Next, the blood was immediately centrifuged, and 1,25-(OH)2D3, calcium, inorganic phosphorus, and magnesium concentrations in plasma were determined.
It is noted that the bioavailability was determined by comparing an area under the plasma concentration-time curve (AUC) between the cow to which 1,25-(OH)2D3 was intravaginally administered at 1.0 μg/kg (by body weight) and the cow to which the same amount of 1,25-(OH)2D3 was intravenously administered, and a AUC ratio between intravaginal administration and intravenous administration was indicated by percentage.

[2] = Dose-response test of 1,25-(OH)2D3, intravaginal vs intravenous: calcium, inorganic phosphorus, magnesium in plasma (Example 3); assay type: in vivo, cow
Description: as §1, §2, §3, §4, §5, §6, §7, §8

[3] = Dose-response test of 1,25-(OH)2D3: Ca/Cre, iP/Cre, Mg/Cre in urine (Example 3); assay type: in vivo, cow; details: for iP/Cre in urine: vs immediately before administration
Description: as §1, §2, §3, §4, §5, §6
Urine were collected by urethral catheterization simultaneously with the collection of blood samples from the cows that underwent the intravaginal administration of 1,25-(OH)2D3 at 0.125 and 1.0 μg/kg (by body weight) and the intravenous injection of 1,25-(OH)2D3at 1.0 μg/kg (by body weight), to determine creatinine, calcium, inorganic phosphorus, and magnesium concentrations in the urine. Plasma and urine samples were cryopreserved at −20° C. until analysis.

[4] = intravenous, four dose levels (30, 90, 270, and 600 μg); increase not directly related to dose; cited from earlier work
[5] = in vivo; cited from earlier work
[6] = intravaginal, four doses 0.125-1.0 μg/kg
[7] = 0 hour, intravaginal 0.125 μg/kg
[8] = 0 hour, intravaginal 0.25 μg/kg
[9] = 24 hours after intravaginal 0.125 μg/kg
[10] = 24 hours after intravaginal 1.0 μg/kg

## C=C1/C(=C\C=C2/CCC[C@]3(C)[C@@H]([C@H](C)CCCC(C)(C)O)CC[C@@H]23)C[C@@H](O)C[C@@H]1O [1,25-(OH)2D3, 1,25-dihydroxyvitamin D3]
[1]; 2 hours after intravaginal 0.125 μg/kg
  1,25-(OH)2D3 level in plasma, peak: 2219.3 ± 812.0 pg/mL
[1]; 2 hours after intravaginal 0.25 μg/kg
  1,25-(OH)2D3 level in plasma, peak: 3448.7 ± 737.9 pg/mL
[1]; 2 hours after intravaginal 0.5 μg/kg
  1,25-(OH)2D3 level in plasma, peak: 6388.5 ± 1127.4 pg/mL
[1]; 2 hours after intravaginal 1.0 μg/kg
  1,25-(OH)2D3 level in plasma, peak: 12315.7 ± 2288.3 pg/mL
[1]; female, Holstein, bovine, plasma, other: intravaginal, 1 μg/kg, intravaginal vs intravenous, ovariectomized cows, read-out: bioavailability, share of 1,25-(OH)2D3 administered to the vaginal lumen entering the circulatory system
  bioavailability: ~93%
[1]; female, Holstein, bovine, plasma, other: intravaginal, intravaginal 0.125 μg/kg, ovariectomized cows
  concentration at 0 h: 7.4 ± 5.3 pg/mL
[1]; female, Holstein, bovine, plasma, other: intravaginal, intravaginal 0.25 μg/kg
  concentration at 0 h: 6.5 ± 1.3 pg/mL
[1]; female, Holstein, bovine, plasma, other: intravaginal, intravaginal 0.5 μg/kg
  concentration at 0 h: 8.7 ± 5.6 pg/mL
[1]; female, Holstein, bovine, plasma, other: intravaginal, intravaginal 1.0 μg/kg
  concentration at 0 h: 6.6 ± 1.6 pg/mL
[1]; intravaginal 1.0 μg/kg vs intravenous 1.0 μg/kg, one value per each of the five cows
  individual bioavailability (AUC ratio intravaginal/intravenous): 71.1% and 124.2% and 113.3% and 90.0% and 66.5%
[1]; intravaginal 0.125, 0.25, 0.5 and 1.0 μg/kg
  time of peak 1,25-(OH)2D3 level in plasma after administration: 2 h
[1]; [6]
  dose dependence of absorption from the vaginal wall: absorbed from the vaginal wall proportionately with a dose
[2]; [7]
  calcium concentration in plasma: 8.9 ± 0.5 mg/dL
  inorganic phosphorus concentration in plasma: 5.3 ± 1.0 mg/dL
  magnesium concentration in plasma: 2.2 ± 0.2 mg/dL
[2]; [8]
  calcium concentration in plasma: 8.9 ± 0.4 mg/dL
  inorganic phosphorus level in plasma: 4.7 ± 0.6 mg/dL
  magnesium concentration in plasma: 2.0 ± 0.2 mg/dL
[2]; 0 hour, intravaginal 0.5 μg/kg
  calcium concentration in plasma: 8.9 ± 0.2 mg/dL
  inorganic phosphorus concentration in plasma: 5.3 ± 0.6 mg/dL
  magnesium concentration in plasma: 2.2 ± 0.2 mg/dL
[2]; 0 hour, intravaginal 1.0 μg/kg
  calcium concentration in plasma: 8.8 ± 0.7 mg/dL
  inorganic phosphorus concentration in plasma: 5.4 ± 1.3 mg/dL
  magnesium concentration in plasma: 2.1 ± 0.1 mg/dL
[2]; 0 hour, intravenous 1.0 μg/kg
  calcium concentration in plasma: 8.8 ± 0.5 mg/dL
  inorganic phosphorus concentration in plasma: 5.2 ± 1.3 mg/dL
  magnesium concentration in plasma: 2.2 ± 0.2 mg/dL
[2]; 12 hour after intravenous 1.0 μg/kg
  inorganic phosphorus concentration in plasma: 7.2 ± 0.8 mg/dL
[2]; 12 hours (start of 12 to 120 hours) after intravaginal 0.25 μg/kg
  inorganic phosphorus level in plasma: 6.7 ± 0.9 mg/dL
[2]; 12 hours after intravaginal 0.5 μg/kg
  magnesium concentration in plasma: 1.9 ± 0.2 mg/dL
[2]; [9]
  inorganic phosphorus concentration in plasma: 7.7 ± 0.8 mg/dL
  magnesium concentration in plasma: 1.9 ± 0.1 mg/dL
[2]; 24 hours after intravaginal 0.25 μg/kg
  magnesium concentration in plasma: 1.8 ± 0.1 mg/dL
[2]; 24 hours after intravaginal 0.5 μg/kg
  inorganic phosphorus concentration in plasma: 7.9 ± 0.9 mg/dL
[2]; [10]
  inorganic phosphorus concentration in plasma: 8.0 ± 1.2 mg/dL
  magnesium concentration in plasma: 1.8 ± 0.2 mg/dL
[2]; 24 hours after intravenous 1.0 μg/kg
  magnesium concentration in plasma: 1.9 ± 0.3 mg/dL
[2]; 24 hours after intravenous 1.0 μg/kg (start of peak period)
  inorganic phosphorus concentration in plasma, peak: 9.1 ± 1.6 mg/dL
[2]; 48 hours after intravaginal 0.125 μg/kg, significantly high 12 to 120 hours
  calcium concentration in plasma, peak: 11.1 ± 0.9 mg/dL
[2]; 48 hours after intravaginal 0.25 μg/kg, significantly high 12 to 120 hours
  calcium concentration in plasma, peak: 11.2 ± 0.7 mg/dL
[2]; 48 hours after intravaginal 0.5 μg/kg, significantly high 6 to 120 hours
  calcium concentration in plasma, peak: 11.5 ± 0.6 mg/dL
[2]; 48 hours after intravaginal 1.0 μg/kg, significantly high 6 to 120 hours
  calcium concentration in plasma, peak: 12.0 ± 0.6 mg/dL
[2]; 120 hours (end of 12 to 120 hours) after intravaginal 0.25 μg/kg
  inorganic phosphorus level in plasma: 8.6 ± 1.2 mg/dL
[2]; 120 hours after intravaginal 0.125 μg/kg
  magnesium concentration in plasma: 1.8 ± 0.3 mg/dL
[2]; 120 hours after intravaginal 0.25 μg/kg
  magnesium concentration in plasma: 1.7 ± 0.2 mg/dL
[2]; 120 hours after intravaginal 0.5 μg/kg
  magnesium concentration in plasma: 1.7 ± 0.2 mg/dL
[2]; 120 hours after intravaginal 1.0 μg/kg
  magnesium concentration in plasma: 1.7 ± 0.4 mg/dL
[2]; 120 hours after intravenous 1.0 μg/kg
  magnesium concentration in plasma: 1.7 ± 0.2 mg/dL
[2]; end of peak period 'from 24 hours to 12 hours' after intravenous 1.0 μg/kg
  inorganic phosphorus concentration in plasma, peak: 9.0 ± 1.2 mg/dL
[2]; [6]
  dose-relationship of changes in calcium, inorganic phosphorus and magnesium concentrations in plasma: no dose-relationship
[2]; intravenous 1.0 μg/kg
  calcium concentration in plasma, peak: 11.5 ± 1.2 mg/dL
[3]; intravaginal 0.125 μg/kg
  Ca/Cre, iP/Cre and Mg/Cre in urine: no influence
[3]; via the vagina 1.0 μg/kg, at 24 hours after administration
  Ca/Cre in urine: significantly rose
[3]; via the vagina 1.0 μg/kg, from 6 hours to 12 hours after administration
  Mg/Cre in urine: significantly high
[3]; via the vagina 1.0 μg/kg, from 48 hours to 120 hours
  iP/Cre in urine: significantly high
[3]; via the vein 1.0 μg/kg, at 6 hours after administration
  Mg/Cre in urine: significantly high
[3]; via the vein 1.0 μg/kg, at 12 hours and 24 hours after administration
  Ca/Cre in urine: significantly rose
[3]; via the vein 1.0 μg/kg, from 72 hours to 120 hours
  iP/Cre in urine: significantly high
[4]
  excretion of calcium into urine: increases
[5]
  bioavailability of 1,25-(OH)2D3: 62% and 67%
